Series [1] concerns scopolamine-induced mice with cognitive impairment. Particulars: one-month pre-treatment via cannula into the third ventricle, total 65 ng/month/head; cited from earlier work.
Series [2] has as its target T1, Aβ peptide (1–42) (Homo sapiens, UniProt P05067).
T1 construct: The Aβ peptide (1–42) was synthesized and purchased from Kelowna International Scientific Inc; purchased Kelowna International Scientific Inc. (New Taipei, Taiwan); host or cells: chemical synthesis
Briefly: biochemical. The settings on record: 10 μM Aβ working solution, ThT, 37 °C, 24 h; read-out: IC50 of the anti-Aβ peptide (1–42) aggregation. The method, then:
To prepare the 10 μM Aβ peptide working solution, commercial Aβ peptide was first weighted and dissolved in HFIP to 1 mM. Next, the solvent was evaporated in a hood and then re-dissolved using 100 μL of 60 mM NaOH. It was then diluted to 10 μM working solutions with 50 mM phosphate buffer (pH 7.4, containing 150 mM sodium chloride and 1 mM EDTA), following previous reports. […] DMSO instead of the sample solution was used as the control. The 50 mM phosphate buffer was used instead of the Aβ working solution as the sample blank. […] The IC50 of the inhibition against the Aβ aggregation of PIC and its analogs was calculated from each linear equation using three test concentrations and their inhibition capacities.

The conditions of series [3]: read-out: Cmax of metabolite; after intravenous PIC 90 μmole/kg (21.98 mg/kg), SD rats; cited from earlier work.
Series [4] is described as follows: Neurite outgrowth and cell viability, two-color fluorescence assay kit. It counts as cell-based. Particulars: human, SH-SY5Y neuroblastoma cells, 3-day or 6-day treatment, green fluorescence, read-out: cell viability relative to the control. The procedure:
(§1) The SH-SY5Y cells were grown in DMEM/F-12 medium supplemented with 10% FBS at 37 °C under a humidified atmosphere and 5% CO2 [41]. […] The MTT was used to evaluate cell viability, and the absorbance at 570 nm was determined. The DMSO used instead of the sample solution was blank (recognized as 100%), and each treatment was expressed as relative cell viability (%). To study the stimulation of neurite outgrowth, the SH-SY5Y cells (5000 cells/well) were seeded on a 96-well plate pre-coated with poly-L-lysine and then cultured in the DMEM/F-12 medium containing 10% FBS overnight at 37 °C under a humidified atmosphere and 5% CO2. After being removed from the culture medium, each PIC, GNT, RHA, and isoRHA (at a final concentration of 10 μM in the 0.1%DMSO) or 0.1% DMSO (the control) was added to the DMEM/F-12 medium containing 10% FBS and refreshed every three days. On day 3 and day 6, each of the culture plates was photographed using an inverted microscope (ECLIPSE TS100, Nikon Instruments Inc., Tokyo, Japan). The culture medium was removed and washed with PBS, and the cultured cells in each well were fixed with 4% paraformaldehyde. To measure cell viability and quantify the neurite outgrowths of the treated SH-SY5Y in a 96-well plate, the neurite outgrowth staining kit (a two-color fluorescence assay kit) was used, following a previous report or the protocol in the manufacturer’s manual (publication number: MAN0007224), which included a cell membrane-stained fluorescent dye (orange-red fluorescence), a cell viability indicator (green fluorescence), and a reagent for background masking. […] The value for the control was recognized as 100%, and each treatment was expressed relative to the control.

Series [5] relates to SH-SY5Y cells. Described as above. The settings on record: 10 μM. The format is cell-based. The procedure:
as §1

The target in series [6] is T2, recombinant human AChE (Homo sapiens, UniProt P22303).
T2 construct: purchased R&D Systems Inc. (Minneapolis, MN, USA)
T2 sequence (P22303 32-614): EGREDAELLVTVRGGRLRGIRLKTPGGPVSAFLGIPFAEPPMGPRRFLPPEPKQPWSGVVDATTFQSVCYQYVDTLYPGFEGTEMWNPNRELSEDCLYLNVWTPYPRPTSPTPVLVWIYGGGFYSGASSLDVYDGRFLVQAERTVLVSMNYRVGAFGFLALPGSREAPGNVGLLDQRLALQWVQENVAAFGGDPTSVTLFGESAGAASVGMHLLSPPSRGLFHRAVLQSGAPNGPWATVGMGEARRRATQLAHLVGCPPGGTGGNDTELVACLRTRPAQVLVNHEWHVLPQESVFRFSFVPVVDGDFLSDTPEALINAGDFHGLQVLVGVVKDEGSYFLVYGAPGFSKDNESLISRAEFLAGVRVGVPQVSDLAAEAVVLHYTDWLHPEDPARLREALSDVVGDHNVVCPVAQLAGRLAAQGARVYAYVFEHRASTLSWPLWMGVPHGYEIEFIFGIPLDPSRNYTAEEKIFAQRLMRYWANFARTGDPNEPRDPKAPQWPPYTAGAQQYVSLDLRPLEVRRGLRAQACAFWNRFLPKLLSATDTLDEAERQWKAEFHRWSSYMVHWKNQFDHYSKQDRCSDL
The series is described as follows: AChE inhibitory activity in vitro (acetylthiocholine/DTNB). Particulars: calculated from 100, 200, 500 μM; read-out: IC50 of the anti-AChE activity. It counts as biochemical. The method, then: Commercially synthesized acetylthiocholine iodide was hydrolyzed using AChE to release thiocholine, which was coupled with DTNB to generate the yellowish 5-thio-2-nitrobenzoate for in vitro AChE activity assays. For the AChE inhibitory activity assay, each analog was dissolved in the DMSO, and final concentrations of 100, 200, and 500 μM were used for comparisons. An equal volume of DMSO instead of the sample solution was used in the blank group and expressed as 100% AChE activity. […] AChE inhibition (%) was calculated as follows: [(A405blank − A405sample)/(A405blank)] × 100%.

A short description of series [7]: DPPH radical scavenging activity. Particulars: 120 μM DPPH in methanol, 37 °C, 20 min. The procedure:
DPPH radical scavenging activity was assayed following a previous report, with some modifications. […] DMSO was used instead of a sample solution in the blank group. […] The scavenging activity of the DPPH radical (%) was calculated with the following equation: (△A515blank − △A515sample) ÷ △A515blank × 100%. The IC50 of the DPPH radical scavenging activity of PIC and its analogs or that of Trolox was calculated from each linear equation by three test concentrations and their radical scavenging activities.
A general note: Loss of DPPH colour is used to gauge radical scavenging.

The test system of series [8] is SH-SY5Y cells. The series is described as follows: Neuroprotection against Aβ peptide (25–35)-induced cell deaths (MTT). The settings on record: pre-treatment 1, 2 and 10 μM for 24 h, then 40 μg/mL Aβ (25–35) 24 h; vs control p < 0.05. It counts as cell-based, human. The method, then: The human SH-SY5Y neuroblastoma cell lines (CRL-2266, Lot No. 58979771) were purchased from American Type Culture Collection (Manassas, VA, USA) and used as models to investigate PIC and its analogs for neuroprotective activities against Aβ-induced cell deaths and the stimulation of neurite outgrowths. The SH-SY5Y cells were grown in DMEM/F-12 medium supplemented with 10% FBS at 37 °C under a humidified atmosphere and 5% CO2 [41]. […]. The SH-SY5Y cells (10,000 cells/well) were seeded and cultured in a DMEM/F-12 medium containing 10% FBS for 24 h at 37 °C under a humidified atmosphere and 5% CO2. […] The medium was then removed, and 40 μg/mL Aβ peptide (25–35) (dissolved in PBS) or an equal aliquot of PBS was added to the medium for another 24 h culture. The MTT was used to evaluate cell viability, and the absorbance at 570 nm was determined. The DMSO used instead of the sample solution was blank (recognized as 100%), and each treatment was expressed as relative cell viability (%). To study the stimulation of neurite outgrowth, the SH-SY5Y cells (5000 cells/well) were seeded on a 96-well plate pre-coated with poly-L-lysine and then cultured in the DMEM/F-12 medium containing 10% FBS overnight at 37 °C under a humidified atmosphere and 5% CO2. After being removed from the culture medium, each PIC, GNT, RHA, and isoRHA (at a final concentration of 10 μM in the 0.1%DMSO) or 0.1% DMSO (the control) was added to the DMEM/F-12 medium containing 10% FBS and refreshed every three days. On day 3 and day 6, each of the culture plates was photographed using an inverted microscope (ECLIPSE TS100, Nikon Instruments Inc., Tokyo, Japan). The culture medium was removed and washed with PBS, and the cultured cells in each well were fixed with 4% paraformaldehyde. To measure cell viability and quantify the neurite outgrowths of the treated SH-SY5Y in a 96-well plate, the neurite outgrowth staining kit (a two-color fluorescence assay kit) was used, following a previous report or the protocol in the manufacturer’s manual (publication number: MAN0007224), which included a cell membrane-stained fluorescent dye (orange-red fluorescence), a cell viability indicator (green fluorescence), and a reagent for background masking. The fluorescence ratios of Ex555nm/Em565nm and Ex495nm/Em515nm were determined for the neurite outgrowths and the cell viabilities, respectively. The value for the control was recognized as 100%, and each treatment was expressed relative to the control.

The conditions of series [9]: cited from earlier work.
For series [10], the system named is scopolamine-induced amnesiac ICR mice. Particulars: pre-treatment 40 mg/kg; cited from earlier work.
The test system of series [11] is early Alzheimer’s. Particulars: 18-month phase-3 trial; cited from earlier work.

Entries after “also recorded” stand apart in the source; their conditions may differ.

T1 sequence (P05067 672-713): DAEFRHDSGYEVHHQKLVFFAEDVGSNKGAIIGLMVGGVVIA

With `Oc1ccc([C@H]2c3c(O)cc(O)cc3[C@H]3c4c(cc(O)cc4[C@@H]2O)O[C@@H]3c2ccc(O)cc2)cc1` [ampelopsin A], the “learning behavior, passive avoidance test and novel object recognition” value in series [1] is on record as “clear restoration of learning behavior”.

A word on the IC50: it is the concentration that gives 50% inhibition. As usually defined, the Cmax is the maximum level reached in the sampled fluid or tissue. One may read the viability as a per cent measure of how many cells are alive, often set against a control. As for `COc1cc(C=Cc2cc(O)cc(O)c2)ccc1O` [isoRHA, 3,5,4′-trihydroxy-3′-methoxystilbene], the IC50 is 1.94 µM in [2], 322 µM in series [6] and 72.9 µM in series [7]. Moreover, in series [3], the Cmax is 5.08 ± 0.31 µM. Moreover, in series [4], the viability at 10 µM came to 80%. In series [5] (3-day or 6-day treatment, orange-red fluorescence, vs control), the “stimulation of neurite outgrowths” value is listed as “stimulate neurite outgrowths; also recorded: showed stimulated activities toward neurite outgrowths; also recorded: showed stimulatory activity in neurite outgrowths”. Also, the “total neurite lengths in living SH-SY5Y cells, fold of the control” value in [5] (calculated) is on record as 1.375 fold. In series [8], the “neuroprotection: cell viability against Aβ peptide (25–35)-induced cell deaths” value was “elevated cell viabilities”.

For the molecule `OC[C@H]1O[C@@H](Oc2cc(/C=C/c3cc(O)cc(O)c3)ccc2O)[C@H](O)[C@@H](O)[C@@H]1O` [piceatannol-3′-O-β-D-glucopyranoside], the “crossing of the BBB” value in [9] is listed as “reported to cross the BBB”.

On to `Oc1ccc([C@H]2c3c(O)cc(O)cc3[C@H]3c4c(cc(O)cc4[C@@H]2c2cc(/C=C/c4cc(O)cc5c4[C@H](c4cc(O)cc(O)c4)[C@@H](c4ccc(O)cc4)O5)ccc2O)O[C@@H]3c2ccc(O)cc2)cc1` [vitisin A], for which, in series [10], the “learning and memory functions via the passive avoidance test” value was “improved learning and memory functions”.

B1: lecanemab (antibody, chains of the INN, looked up, V domains shown)
VH: EVQLVESGGGLVQPGGSLRLSCSASGFTFSSFGMHWVRQAPGKGLEWVAYISSGSSTIYYGDTVKGRFTISRDNAKNSLFLQMSSLRAEDTAVYYCAREGGYYYGRSYYTMDYWGQGTTVTVSS
VL: DVVMTQSPLSLPVTPGAPASISCRSSQSIVHSNGNTYLEWYLQKPGQSPKLLIYKVSNRFSGVPDRFSGSGSGTDFTLRISRVEAEDVGIYYCFQGSHVPPTFGPGTKLEIK
For the molecule B1, the “less decline in measures of cognition and function as compared to a placebo” value in [11] was 25%.

The values are drawn from PMC10376691, “Inhibition of Acetylcholinesterase and Amyloid-β Aggregation by Piceatannol and Analogs: Assessing In Vitro and In Vivo Impact on a Murine Model of Scopolamine-Induced Memory Impairment” (Antioxidants, 2023).
